In publication PMC7400437, “Synthesis and Evaluation of the Antibacterial Activities of 13-Substituted Berberine Derivatives” (Antibiotics, 2020):
Like-named read-outs stand apart in the source and are kept apart here.

Tests used:
[1] = tested on: S. aureus; experiment: MIC, antimicrobial activity assay; format: cell-based, Staphylococcus aureus (ATCC 6538P); conditions: Staphylococcus aureus
[2] = tested on: B. subtilis; experiment: MIC, antimicrobial activity assay; format: cell-based, Bacillus subtilis (ATCC 6633); conditions: Bacillus subtilis
[3] = tested on: E. coli; experiment: MIC, antimicrobial activity assay; format: cell-based, Escherichia coli (ATCC 8739); conditions: Escherichia coli
[4] = tested on: P. aeruginosa; experiment: MIC, antimicrobial activity assay; format: cell-based, Pseudomonas aeruginosa (ATCC 9027); conditions: Pseudomonas aeruginosa
[5] = tested on: M. smegmatis; experiment: microbe, parasite or virus in culture; format: cell-based, Mycobacterium smegmatis (mc2155, ATCC 700084); conditions: Mycolicibacterium smegmatis, 72 h, read-out: Minimal Inhibitory Concentration (MIC) M. smegmatis
[6] = tested on: C. albicans; experiment: MIC, antifungal activity assay; format: cell-based, Candida albicans (DSM 10697); conditions: Candida albicans; Table 1 first screening; 35 °C, 24 h; read-out: Minimal Inhibitory Concentration (MIC) C. albicans
[7] = tested on: C. difficile; experiment: MIC, antimicrobial activity assay; format: cell-based, Clostridium difficile (DSM 1296); conditions: Clostridioides difficile; Table 4, Gram-positive; anaerobic
[8] = tested on: C. perfringens; experiment: microbe, parasite or virus in culture; format: cell-based, Clostridium perfringens (ATCC 13124); conditions: Clostridium perfringens, read-out: MIC C. perfringens
[9] = tested on: E. faecalis (Vancomycin-resistant); experiment: MIC, antimicrobial activity assay; format: cell-based, vancomycin-resistant Enterococcus faecalis (DSMZ 13591); conditions: Enterococcus faecalis, read-out: MIC E. faecalis (Vancomycin-resistant)
[10] = tested on: L. lactis; experiment: MIC, antimicrobial activity assay; format: cell-based, Lactococcus lactis (DSM 20481); conditions: Lactococcus lactis; Table 4, Gram-positive
[11] = tested on: S.aureus (Methicillin-resistant); experiment: MIC, antimicrobial activity assay; format: cell-based; conditions: Staphylococcus aureus, read-out: MIC S.aureus (Methicillin-resistant)
[12] = tested on: S. pyogenes; experiment: MIC, antimicrobial activity assay; format: cell-based, Streptococcus pyogenes (DSM 20565); conditions: Streptococcus pyogenes; Table 4, Gram-positive; anaerobic
[13] = tested on: A. baumannii; experiment: MIC, antimicrobial activity assay; format: cell-based, Acinetobacter baumannii (CIP 110431); conditions: Acinetobacter baumannii; Table 4, Gram-negative
[14] = tested on: S. flexneri; experiment: MIC, antimicrobial activity assay; format: cell-based, Shigella flexneri (ATCC 12022); conditions: Shigella flexneri; Table 4, Gram-negative
[15] = tested on: V. diabolicus; experiment: MIC, antimicrobial activity assay; format: cell-based; conditions: Vibrio diabolicus; Table 4, Gram-negative
[16] = tested on: S. aureus; experiment: Bacterial membrane permeabilization assay (propidium iodide); format: cell-based, Staphylococcus aureus; conditions: for membrane permeabilization at 4-times MIC, S. aureus: 4-times their MIC; for maximal membrane permeabilization, S. aureus: 120 min exposure to 100 µM, CTAB 300 µM = 100%
Procedure: (§1) Membrane permeabilization by berberine derivatives was evaluated using the cell-impermeable DNA/RNA probe propidium iodide as previously explained. Logarithmic growing bacterial suspensions were prepared from overnight bacterial suspension by 1 in 10 dilution. After 3 h incubation at 37 °C, 200 rpm, bacterial suspensions were centrifuged for 5 min at 3000 rpm. Cell pellets were then resuspended in sterile PBS at about 10^9 cells/mL. Propidium iodide (Sigma Aldrich) was then added to the suspension at a final concentration of 60 µM. 100 µL of this suspension were then transferred into 96-well black plates (Dominique Dutscher) and exposed to increasing concentrations of berberine’s derivative (from 0 to 100 µM, 1:2 dilution). […] All steps of the assay were performed in aerobic condition except for H. pylori which was done in microaerobic condition generated with GasPak unit (Sigma Aldrich). Bacteria were incubated at 37 °C and the kinetics of fluorescence variations (excitation at 530 nm and emission at 590 nm) were then recorded over time using a Synergy Mx microplate reader (Biotek). Cetyl trimethylammonium bromide (CTAB) at 300 µM was used as positive control giving 100% permeabilization. Results were expressed in % of permeabilization. All experiments were done in triplicate.

[17] = tested on: B. subtilis; experiment: as above; format: cell-based, Bacillus subtilis; conditions: for membrane permeabilization at 4-times MIC, B. subtilis: 4-times their MIC; for maximal membrane permeabilization, B. subtilis: 120 min exposure to 100 µM, CTAB 300 µM = 100%
Procedure: as §1

[18] = tested on: DNA extracted from S. aureus; experiment: DNA fragmentation assay; conditions: data not shown
[19] = tested on: DNA extracted from H. pylori; experiment: DNA fragmentation assay; conditions: data not shown
[20] = tested on: V. alginolyticus; experiment: Macromolecule synthesis inhibition assay by fluorescent microscopy (morphological changes); conditions: 4 × MIC, 2 h, 37 °C; for Observed Morphology: DNA, V. alginolyticus: DAPI; for Observed Morphology: cell membrane, V. alginolyticus: FM4-64FX; for Known/Possible Target, V. alginolyticus: inferred from morphology
[21] = Table 1 first screening, read-out: Minimal Inhibitory Concentration (MIC) S. aureus
[22] = Table 4, Gram-positive, read-out: MIC S. aureus
[23] = Table 1 first screening, read-out: Minimal Inhibitory Concentration (MIC) B. subtilis
[24] = Table 4, Gram-positive, read-out: MIC B. subtilis
[25] = Table 1 first screening, read-out: Minimal Inhibitory Concentration (MIC) E. coli
[26] = Table 4, Gram-negative, read-out: MIC E. coli
[27] = Table 1 first screening, read-out: Minimal Inhibitory Concentration (MIC) P. aeruginosa
[28] = Table 4, Gram-negative, read-out: MIC P. aeruginosa

SMILES | MIC [1, 21] | MIC [1, 22] | MIC [2, 23] | MIC [2, 24] | MIC [3, 25] | MIC [3, 26] | MIC [4, 27] | MIC [4, 28] | MIC [5] | MIC [6] | MIC [7] | MIC [8] | MIC [9] | MIC [10] | MIC [11] | MIC [12] | MIC [13] | MIC [14] | MIC [15] | membrane permeabilization at 4-times MIC, S. aureus [16] | other results
COc1cc(C(=O)Cc2c3[n+](cc4c(OC)c(OC)ccc24)CCc2cc4c(cc2-3)OCO4)cc(OC)c1OC(=O)c1ccccc1 [Compound 16, 4-[2-(Berberin-13-yl)acetyl]-2,6-dimethoxyphenyl Benzoate] | 6.25 to 12.5 µM | 6.25 µM | 25 µM | 25 µM | > 100 µM | > 100 µM | > 100 µM | > 100 µM | 50 µM | > 100 µM | 100 µM | 25 µM | 50 µM | 6.25 to 12.5 µM | 12.5 µM | 6.25 µM | > 100 µM | > 100 µM | > 100 µM | low to no membrane permeabilization | maximal membrane permeabilization, S. aureus [16]: 80–100%; membrane permeabilization at 4-times MIC, B. subtilis [17]: low to no membrane permeabilization; maximal membrane permeabilization, B. subtilis [17]: 10–15%; DNA fragmentation, S. aureus DNA [18]: failed at causing the fragmentation of DNA; DNA fragmentation, H. pylori DNA [19]: failed at causing the fragmentation of DNA; Observed Morphology: cell elongation, V. alginolyticus [20]: 2–4 times compared to control; Observed Morphology: cells connected, V. alginolyticus [20]: 2–4 cells connected; Observed Morphology: DNA, V. alginolyticus [20]: Decondensed DNA spanning cell; Observed Morphology: cell membrane, V. alginolyticus [20]: Cell membrane thickening; Known/Possible Target, V. alginolyticus [20]: Cell wall biosynthesis
COc1ccc(C(=O)/C=C/c2ccc(Cc3c4[n+](cc5c(OC)c(OC)ccc35)CCc3cc5c(cc3-4)OCO5)cc2)c(O)c1 [Compound 25, (2E)-3-{4-[(Berberin-13-yl)methyl]phenyl}-1-(2-hydroxy-4-methoxyphenyl)prop-2-en-1-one] | 3.12 µM | 3.12 µM | 6.25 µM | 6.25 µM | > 100 µM | > 100 µM | > 100 µM | > 100 µM | 25 µM | 12.5 µM | 12.5 µM | 25 µM | 12.5 µM | 1.5 to 3.12 µM | 6.25 µM | 6.25 µM | > 100 µM | > 100 µM | > 100 µM | low to no membrane permeabilization | maximal membrane permeabilization, S. aureus [16]: 80–100%; membrane permeabilization at 4-times MIC, B. subtilis [17]: low to no membrane permeabilization; maximal membrane permeabilization, B. subtilis [17]: 10–15%; DNA fragmentation, S. aureus DNA [18]: failed at causing the fragmentation of DNA; DNA fragmentation, H. pylori DNA [19]: failed at causing the fragmentation of DNA; Observed Morphology: cell elongation, V. alginolyticus [20]: 2–7 times compared to control; Observed Morphology: cells connected, V. alginolyticus [20]: 1–2 cells connected; Observed Morphology: DNA, V. alginolyticus [20]: Condensed DNA spanning the cell; Observed Morphology: cell membrane, V. alginolyticus [20]: Cell membrane pigmentation; Known/Possible Target, V. alginolyticus [20]: RNA biosynthesis
